Source: US8637501B2, “Azinone-substituted azepino[b]indole and pyrido-pyrrolo-azepine MCH-1 antagonists, methods of making, and use thereof” (Albany Molecular Research, Inc., priority 2009, dated 2014)
Structures can show the parent of a compound that is named as a salt.

Molecular target: human MCH-1 receptor (Homo sapiens (Human), UniProt Q99705)
Test: Binding Assay for Human Melanin-Concentrating Hormone (MCH-1) Receptor
Conditions: radioligand displacement, membranes from CHO-K1 cells expressing human MCH-1 receptor; Ki from IC50 by Cheng Prusoff equation; read-out: MCH1 Ki
Method: Binding Assay for Human Melanin-Concentrating Hormone (MCH-1) Receptor
Evaluation of the affinity of compounds for the human MCH-1 receptor was accomplished using 4-(3,4,5-tritritiumbenzyloxy)-1-(1-(2-(pyrrolidin-1-yl)ethyl)-1H-indazol-5-yl)pyridin-2(1H)-one and membranes prepared from stable CHO-K1 cells expressing the human MCH-1 receptor obtained from Euroscreen (Batch 1138). Cell membrane homogenates (8.92 μg protein) were incubated for 60 min at 25° C. with 1.4 nM of the [^3H]-labeled compound in the absence or presence of the test compound in 50 mM Tris-HCl buffer, pH 7.4. Nonspecific binding was determined in the presence of 50 μM 1-(5-(4-cyanophenyl)bicyclo[3.1.0]hexan-2-yl)-3-(4-fluoro-3-(trifluoromethyl)phenyl)-1-(3-(4-methylpiperazin-1-yl)propyl)urea. Following incubation, the samples were filtered rapidly under vacuum through Skatron 11731 filters, pre-soaked in 0.5% polyethylenimine, and washed with ice-cold 50 mM Tris-HCl buffer, pH 7.4, (wash setting 9,9,0) using a Skatron cell harvester. The filters were counted for radioactivity in a liquid scintillation counter (Tri-Carb 2100TR, Packard) using a scintillation cocktail (Ultima Gold MV, Perkin Elmer).
The results are expressed as a percent inhibition of the control radioligand specific binding. The IC50 value (concentration causing a half-maximal inhibition of control specific binding) and Hill coefficient (nH) were determined by non-linear regression analysis of the competition curve using Hill equation curve fitting. The inhibition constant (Ki) was calculated from the Cheng Prusoff equation: (Ki=IC50/(1+(L/KD)), where L=concentration of radioligand in the assay, and KD=affinity of the radioligand for the receptor.

Sequence of human MCH-1 receptor (Q99705 whole entry): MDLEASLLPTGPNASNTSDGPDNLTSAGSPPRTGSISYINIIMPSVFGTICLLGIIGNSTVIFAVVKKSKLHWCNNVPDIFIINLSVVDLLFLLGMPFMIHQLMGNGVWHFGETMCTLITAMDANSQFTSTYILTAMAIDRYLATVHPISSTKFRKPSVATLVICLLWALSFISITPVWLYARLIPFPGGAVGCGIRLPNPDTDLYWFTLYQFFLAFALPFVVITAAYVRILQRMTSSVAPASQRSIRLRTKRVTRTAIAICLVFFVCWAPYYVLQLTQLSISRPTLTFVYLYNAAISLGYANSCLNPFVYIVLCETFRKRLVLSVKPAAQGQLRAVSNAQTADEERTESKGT

Point of comparison: `CN1CCc2c(n(C)c3cc(-n4ccc(OCc5ccccc5)cc4=O)ccc23)CC1` [Example 44, 4-(benzyloxy)-1-(3,6-dimethyl-1,2,3,4,5,6-hexahydroazepino[4,5-b]indol-8-yl)pyridin-2(1H)-one hydrochloride], Ki 11.6 nM. Against it:
- CC(C)N1CCc2c(n(C)c3cc(-n4ccc(OCc5ccc(F)cn5)cc4=O)ccc23)CC1 [Example 16, 4-((5-Fluoropyridin-2-yl)methoxy)-1-(3-isopropyl-6-methyl-1,2,3,4,5,6-hexahydroazepino[4,5-b]indol-8-yl)pyridin-2(1H)-one hydrochloride] — within 1.5-fold, 13.7 nM
- Cn1c2c(c3ccc(-n4ccc(-c5ccc(C(F)(F)F)cc5)nc4=O)cc31)CCNCC2 [Example 49, 1-(6-Methyl-1,2,3,4,5,6-hexahydroazepino[4,5-b]indol-8-yl)-4-(4-(trifluoromethyl)phenyl)pyrimidin-2(1H)-one hydrochloride] — within 1.5-fold, 17 nM
- Cn1c2c(c3ccc(-n4ccc(OCc5ccc(Cl)cc5)cc4=O)nc31)CNCCC2 [Example 113, 4-(4-Chlorobenzyloxy)-1-(10-methyl-5,6,7,8,9,10-hexahydropyrido[3′,2′:4,5]pyrrolo[3,2-c]azepin-2-yl)pyridin-2(1H)-one hydrochloride] — 2-fold lower, 5.9 nM
- Cn1c2c(c3ccc(-n4ccc(OCc5ccc(Cl)cc5F)cc4=O)nc31)CNCCC2 [Example 96, 4-(4-Chloro-2-fluorobenzyloxy)-1-(10-methyl-5,6,7,8,9,10-hexahydropyrido[3′,2′:4,5]pyrrolo[3,2-c]azepin-2-yl)pyridin-2(1H)-one hydrochloride] — within 1.5-fold, 9.2 nM
- Cn1c2c(c3ccc(-n4ccc(-c5ccc(C(F)(F)F)nc5)nc4=O)cc31)CNCCC2 [Example 108, 1-(6-Methyl-1,2,3,4,5,6-hexahydroazepino[4,3-b]indol-8-yl)-4-(6-(trifluoromethyl)pyridin-3-yl)pyrimidin-2(1H)-one hydrochloride] — 5.2-fold higher, 60 nM
- Cn1c2c(c3ccc(-n4ncc(OCc5ccc(F)cn5)cc4=O)cc31)CCNCC2 [Example 10, 5-((5-Fluoropyridin-2-yl)methoxy)-2-(6-methyl-1,2,3,4,5,6-hexahydroazepino[4,5-b]indol-8-yl)pyridazin-3(2H)-one dihydrochloride] — within 1.5-fold, 13.4 nM
- CCN1CCc2c(n(C)c3cc(N4CCN(CCc5ccc(F)cc5)CC4=O)ccc23)CC1 [Example 99, 1-(3-Ethyl-6-methyl-1,2,3,4,5,6-hexahydroazepino[4,5-b]indol-8-yl)-4-(4-fluorophenethyl)piperazin-2-one dihydrochloride] — within 1.5-fold, 17 nM
- CN1CCCc2c(c3ccc(-n4ccc(OCc5ccc(F)cn5)cc4=O)cc3n2C)C1 [Example 70, 1-(2,6-Dimethyl-1,2,3,4,5,6-hexahydroazepino[4,3-b]indol-8-yl)-4-((5-fluoropyridin-2-yl)methoxy)pyridin-2(1H)-one hydrochloride] — within 1.5-fold, 8.8 nM
- Cn1c2c(c3ccc(-n4ccc(OCc5ccc(Cl)cc5Cl)cc4=O)cc31)CNCCC2 [Example 65, 4-(2,4-Dichlorobenzyloxy)-1-(6-methyl-1,2,3,4,5,6-hexahydroazepino[4,3-b]indol-8-yl)pyridin-2(1H)-one hydrochloride] — within 1.5-fold, 11 nM
- Cl.Cn1c2c(c3ccc(-n4ccc(OCc5ccc(F)cn5)cc4=O)cc31)CCNCC2 [Example 40, 4-((5-Fluoropyridin-2-yl)methoxy-1-(6-methyl-1,2,3,4,5,6-hexahydroazepino[4,5-b]indol-8-yl)pyridin-2(1H)-one hydrochloride] — 1.6-fold lower, 7.2 nM
- Cn1c2c(c3ccc(-n4ccc(CCc5ccccc5)nc4=O)cc31)CNCCC2 [Example 107, 1-(6-Methyl-1,2,3,4,5,6-hexahydroazepino[4,3-b]indol-8-yl)-4-phenethylpyrimidin-2(1H)-one hydrochloride] — within 1.5-fold, 9.7 nM
- CCN1CCCc2c(c3ccc(-n4ccc(OCc5ccccc5)cc4=O)cc3n2C)C1 [Example 30, 4-(Benzyloxy)-1-(2-ethyl-6-methyl-1,2,3,4,5,6-hexahydroazepino[4,3-b]indol-8-yl)pyridin-2(1H)-one hydrochloride] — 2.3-fold lower, 5 nM
- Cn1c2c(c3ccc(-n4ccc(OCc5ccc(F)cn5)cc4=O)cc31)CNCCC2 [Example 22, 4-((5-Fluoropyridin-2-yl)methoxy)-1-(6-methyl-1,2,3,4,5,6-hexahydroazepino[4,3-b]indol-8-yl)-)pyridin-2(1H)-one hydrochloride] — within 1.5-fold, 11.2 nM
- Cn1c2c(c3ccc(-n4ccc(OCc5ccc(Cl)cn5)cc4=O)cc31)CCNCC2 [Example 50, 4-((5-Chloropyridin-2-yl)methoxy)-1-(6-methyl-1,2,3,4,5,6-hexahydroazepino[4,5-b]indol-8-yl)pyridin-2(1H)-one hydrochloride] — 1.6-fold lower, 7.4 nM
- Cl.Cn1c2c(c3ccc(-n4ccc(-c5ccc(C(F)(F)F)cc5)cc4=O)cc31)CNCCC2 [Example 26, 1-(6-Methyl-1,2,3,4,5,6-hexahydroazepino[4,3-b]indol-8-yl)-4(4-trifluoromethyl)phenyl)pyridin-2(1H)-one hydrochloride] — 1.9-fold lower, 6.1 nM
- Cn1c2c(c3ccc(N4CCN(CCc5ccc(F)cc5)CC4=O)cc31)CCNCC2 [Example 97, 4-(4-Fluorophenethyl)-1-(6-methyl-1,2,3,4,5,6-hexahydroazepino[4,5-b]indol-8-yl)piperazin-2-one dihydrochloride] — within 1.5-fold, 13 nM
- Cl.Cn1c2c(c3ccc(-n4ccc(-c5ccc(C(F)(F)F)cn5)cc4=O)cc31)CCCNC2 [Example 20, 1-(10-Methyl-1,2,3,4,5,10-hexahydroazepino[3,4-b]indol-8-yl)-4-(5-trifluoromethyl)pyridin-2-yl)pyridin-2(1H)-one hydrochloride] — 21-fold higher, 242 nM
- Cn1c2c(c3ccc(-n4ccc(OCc5ccc(F)cn5)cc4=O)cc31)C(=O)NCCC2 [Example 104, 8-(4-((5-Fluoropyridin-2-yl)methoxy)-2-oxopyridin-1(2H)-yl)-6-methyl-2,3,4,5-tetrahydroazepino[4,3-b]indol-1(6H)-one] — 13-fold higher, 149 nM
- Cn1c2c(c3ccc(-n4ccc(OCc5ncc(F)cc5F)cc4=O)nc31)CNCCC2 [Example 114, 4-((3,5-Difluoropyridin-2-yl)methoxy)-1-(10-methyl-5,6,7,8,9,10-hexahydropyrido[3′,2′:4,5]pyrrolo[3,2-c]azepin-2-yl)pyridin-2(1H)-one hydrochloride] — 3.8-fold higher, 44 nM
- Cn1c2c(c3ccc(-n4ncc(OCc5ccc(F)cn5)cc4=O)cc31)CNCCC2 [Example 39, 5-((5-Fluoropyridin-2-yl)methoxy)-2-(6-methyl-1,2,3,4,5,6-hexahydroazepino[4,3-b]indol-8-yl)pyridazin-3(2H)-one hydrochloride] — within 1.5-fold, 16.8 nM
- Cn1c2c(c3ccc(-n4ccc(OCc5ccc(F)cc5)cc4=O)cc31)CNCCC2 [Example 103, 4-(4-Fluorobenzyloxy)-1-(6-methyl-1,2,3,4,5,6-hexahydroazepino[4,3-b]indol-8-yl)pyridin-2(1H)-one hydrochloride] — 1.9-fold lower, 6 nM
- Cn1c2c(c3ccc(-n4ccc(OCc5ccccc5)cc4=O)nc31)CCN(C1CCC1)CC2 [Example 86, 4-(Benzyloxy)-1-(7-cyclobutyl-10-methyl-5,6,7,8,9,10-hexahydropyrido[3′,2′:4,5]pyrrolo[2,3-d]azepin-2-yl)pyridin-2(1H)-one hydrochloride] — within 1.5-fold, 16 nM
- Cn1c2c(c3ccc(-n4ccc(-c5ccc(C(F)(F)F)cn5)cc4=O)cc31)CCNCC2 [Example 3, 1-(6-Methyl-1,2,3,4,5,6-hexahydroazepino[4,5-b]indol-8-yl)-4-(5-(trifluoromethyl)pyridin-2-yl)pyridin-2(1H)-one dihydrochloride] — within 1.5-fold, 10.1 nM
- Cc1ccc(COc2ccn(-c3ccc4c5c(n(C)c4c3)CCCNC5)c(=O)c2)cn1 [Example 34, 1-(6-Methyl-1,2,3,4,5,6-hexahydroazepino[4,3-b]indol-8-yl)-4-((6-methylpyridin-3-yl)methoxy)pyridin-2(1H)-one hydrochloride] — within 1.5-fold, 10.6 nM
- O=c1cc(-c2ccc(C(F)(F)F)nn2)ccn1-c1ccc2c3c([nH]c2c1)CCNCC3 [Example 8, 1-(1,2,3,4,5,6-Hexahydroazepino[4,5-b]indol-8-yl)-4-(6-(trifluoromethyl)pyridazin-3-yl)pyridin-2(1H)-one dihydrochloride] — 13-fold higher, 148 nM
- CC(C)N1CCCc2c(c3ccc(-n4ccc(OCc5ccccc5)cc4=O)cc3n2C)C1 [Example 31, 4-(Benzyloxy)-1-(2-isopropyl-6-methyl-1,2,3,4,5,6-hexahydroazepino[4,3-b]indol-8-yl)pyridin-2(1H)-one hydrochloride] — within 1.5-fold, 9.4 nM
- Cn1c2c(c3ccc(-n4ccc(OCc5ccc(F)cn5)cc4=O)nc31)CNCCC2 [Example 91, 4-((5-Fluoropyridin-2-yl)methoxy)-1-(10-methyl-5,6,7,8,9,10-hexahydropyrido[3′,2′:4,5]pyrrolo[3,2-c]azepin-2-yl)pyridin-2(1H)-one hydrochloride] — within 1.5-fold, 15 nM
- Cn1c2c(c3ccc(-n4ccc(OCc5ccccc5)cc4=O)cc31)CCNCC2 [Example 43, 4-(Benzyloxy)-1-(6-methyl-1,2,3,4,5,6-hexahydroazepino[4,5-b]indol-8-yl)pyridin-2(1H)-one hydrochloride] — within 1.5-fold, 8.9 nM
